Earlier results on 1 compound are cited in US10682361B2, “Sustained release bimatoprost, bimatoprost analogs, prostamides and prostaglandins for fat reduction” (ALLERGAN, INC., priority 2013, dated 2020).

Series [1] relates to fat. The note with it: topical administration.
The subject of series [2] is adipocytes. Conditions: topical administration.

Regarding `CCNC(=O)CCC/C=C\C[C@@H]1[C@@H](/C=C/[C@@H](O)CCc2ccccc2)[C@H](O)C[C@@H]1O` [bimatoprost], the clinical fat reduction result in series [1] is reported as “clinical evidence of fat reduction”. Further, in series [2], the “effect on adipocytes in animal models” value is “effectively prevent apidocyte formation and maturation and to atrophy adipocytes”.
